Reference: ChEMBL document CHEMBL3792369, “Nahuoic Acids B-E, Polyhydroxy Polyketides from the Marine-Derived Streptomyces sp. SCSGAA 0027” (2016)
The source made the active and inactive calls. The calls are words filed in the database; no cut-off is given here.

What follows are compounds tested against Acetylcholinesterase (Homo sapiens) (UniProt P22303) (assay: Inhibition of acetylcholinesterase (unknown origin)).
Sequence of Acetylcholinesterase (Homo sapiens) (P22303 whole entry): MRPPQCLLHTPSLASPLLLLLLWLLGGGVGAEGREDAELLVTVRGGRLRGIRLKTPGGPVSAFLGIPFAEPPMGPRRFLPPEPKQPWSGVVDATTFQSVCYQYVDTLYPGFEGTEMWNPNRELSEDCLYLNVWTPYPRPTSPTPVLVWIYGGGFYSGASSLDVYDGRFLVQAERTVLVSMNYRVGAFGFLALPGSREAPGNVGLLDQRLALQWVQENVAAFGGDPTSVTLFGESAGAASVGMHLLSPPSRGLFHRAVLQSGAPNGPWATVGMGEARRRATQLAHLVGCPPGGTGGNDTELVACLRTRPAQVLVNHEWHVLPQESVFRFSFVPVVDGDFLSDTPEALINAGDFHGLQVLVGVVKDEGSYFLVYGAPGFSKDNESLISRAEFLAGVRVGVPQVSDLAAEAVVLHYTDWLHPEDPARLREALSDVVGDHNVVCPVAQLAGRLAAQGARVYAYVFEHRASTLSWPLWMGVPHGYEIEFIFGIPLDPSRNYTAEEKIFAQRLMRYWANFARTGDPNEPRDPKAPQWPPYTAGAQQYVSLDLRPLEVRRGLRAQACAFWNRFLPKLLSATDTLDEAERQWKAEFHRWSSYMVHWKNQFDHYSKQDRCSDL

Row | SMILES | inhibition
1 | CC1=C[C@@]2(C)[C@@H]([C@@H](/C=C(\C)C(=O)O)[C@@H]1/C(C)=C/C[C@H](O)C[C@@H](O)C[C@@H](O)[C@H](C)[C@@H](O)C(C)C)[C@@H](C)CC[C@H]2O | inactive
2 | CC1=C[C@@]2(C)[C@H]([C@@H](C)[C@H](O)C[C@H]2O)[C@@H](/C=C(\C)C(=O)O)[C@@H]1/C(C)=C/C[C@H](O)C[C@@H](O)C[C@@H](O)[C@H](C)[C@@H](O)C(C)C | inactive

What follows are compounds tested on NCI-H1975 (assay: Cytotoxicity against human NCI-H1975 cells).
Format: functional, cell-based

Row | SMILES | Activity
3 | CC1=C[C@@]2(C)[C@@H]([C@@H](/C=C(\C)C(=O)O)[C@@H]1/C(C)=C/C[C@H](O)C[C@@H](O)C[C@@H](O)[C@H](C)[C@@H](O)C(C)C)[C@@H](C)CC[C@H]2O | inactive
4 | CC1=C[C@@]2(C)[C@H]([C@@H](C)[C@H](O)C[C@H]2O)[C@@H](/C=C(\C)C(=O)O)[C@@H]1/C(C)=C/C[C@H](O)C[C@@H](O)C[C@@H](O)[C@H](C)[C@@H](O)C(C)C | inactive

These compounds were tested on K562 (assay: Cytotoxicity against human K562 cells).
Format: functional, cell-based

Row | SMILES | Activity
5 | CC1=C[C@@]2(C)[C@@H]([C@@H](/C=C(\C)C(=O)O)[C@@H]1/C(C)=C/C[C@H](O)C[C@@H](O)C[C@@H](O)[C@H](C)[C@@H](O)C(C)C)[C@@H](C)CC[C@H]2O | inactive
6 | CC1=C[C@@]2(C)[C@H]([C@@H](C)[C@H](O)C[C@H]2O)[C@@H](/C=C(\C)C(=O)O)[C@@H]1/C(C)=C/C[C@H](O)C[C@@H](O)C[C@@H](O)[C@H](C)[C@@H](O)C(C)C | inactive

These compounds were tested on BGC-823 (assay: Cytotoxicity against human BGC823 cells).
Format: functional, cell-based

Row | SMILES | Activity
7 | CC1=C[C@@]2(C)[C@@H]([C@@H](/C=C(\C)C(=O)O)[C@@H]1/C(C)=C/C[C@H](O)C[C@@H](O)C[C@@H](O)[C@H](C)[C@@H](O)C(C)C)[C@@H](C)CC[C@H]2O | inactive
8 | CC1=C[C@@]2(C)[C@H]([C@@H](C)[C@H](O)C[C@H]2O)[C@@H](/C=C(\C)C(=O)O)[C@@H]1/C(C)=C/C[C@H](O)C[C@@H](O)C[C@@H](O)[C@H](C)[C@@H](O)C(C)C | inactive

The compounds below were run on MCF7 (assay: Cytotoxicity against human MCF7 cells).
Format: functional, cell-based

Row | SMILES | Activity
9 | CC1=C[C@@]2(C)[C@@H]([C@@H](/C=C(\C)C(=O)O)[C@@H]1/C(C)=C/C[C@H](O)C[C@@H](O)C[C@@H](O)[C@H](C)[C@@H](O)C(C)C)[C@@H](C)CC[C@H]2O | inactive
10 | CC1=C[C@@]2(C)[C@H]([C@@H](C)[C@H](O)C[C@H]2O)[C@@H](/C=C(\C)C(=O)O)[C@@H]1/C(C)=C/C[C@H](O)C[C@@H](O)C[C@@H](O)[C@H](C)[C@@H](O)C(C)C | inactive

What follows are compounds tested on HL-60 (assay: Cytotoxicity against human HL60 cells).
Format: functional, cell-based

Row | SMILES | Activity
11 | CC1=C[C@@]2(C)[C@@H]([C@@H](/C=C(\C)C(=O)O)[C@@H]1/C(C)=C/C[C@H](O)C[C@@H](O)C[C@@H](O)[C@H](C)[C@@H](O)C(C)C)[C@@H](C)CC[C@H]2O | inactive
12 | CC1=C[C@@]2(C)[C@H]([C@@H](C)[C@H](O)C[C@H]2O)[C@@H](/C=C(\C)C(=O)O)[C@@H]1/C(C)=C/C[C@H](O)C[C@@H](O)C[C@@H](O)[C@H](C)[C@@H](O)C(C)C | inactive

These compounds were tested on Huh-7 (assay: Cytotoxicity against human HuH7 cells).
Format: functional, cell-based

Row | SMILES | Activity
13 | CC1=C[C@@]2(C)[C@@H]([C@@H](/C=C(\C)C(=O)O)[C@@H]1/C(C)=C/C[C@H](O)C[C@@H](O)C[C@@H](O)[C@H](C)[C@@H](O)C(C)C)[C@@H](C)CC[C@H]2O | inactive
14 | CC1=C[C@@]2(C)[C@H]([C@@H](C)[C@H](O)C[C@H]2O)[C@@H](/C=C(\C)C(=O)O)[C@@H]1/C(C)=C/C[C@H](O)C[C@@H](O)C[C@@H](O)[C@H](C)[C@@H](O)C(C)C | inactive

The compounds below were run on Staphylococcus aureus (assay: Antibacterial activity against Staphylococcus aureus).
Format: functional, organism-based

Row | SMILES | Activity
15 | CC1=C[C@@]2(C)[C@@H]([C@@H](/C=C(\C)C(=O)O)[C@@H]1/C(C)=C/C[C@H](O)C[C@@H](O)C[C@@H](O)[C@H](C)[C@@H](O)C(C)C)[C@@H](C)CC[C@H]2O | inactive
16 | CC1=C[C@@]2(C)[C@H]([C@@H](C)[C@H](O)C[C@H]2O)[C@@H](/C=C(\C)C(=O)O)[C@@H]1/C(C)=C/C[C@H](O)C[C@@H](O)C[C@@H](O)[C@H](C)[C@@H](O)C(C)C | inactive

What follows are compounds tested on Shewanella oneidensis (assay: Antibacterial activity against Shewanella oneidensis MR-1).
Format: functional

Row | SMILES | Activity
17 | CC1=C[C@@]2(C)[C@@H]([C@@H](/C=C(\C)C(=O)O)[C@@H]1/C(C)=C/C[C@H](O)C[C@@H](O)C[C@@H](O)[C@H](C)[C@@H](O)C(C)C)[C@@H](C)CC[C@H]2O | inactive
18 | CC1=C[C@@]2(C)[C@H]([C@@H](C)[C@H](O)C[C@H]2O)[C@@H](/C=C(\C)C(=O)O)[C@@H]1/C(C)=C/C[C@H](O)C[C@@H](O)C[C@@H](O)[C@H](C)[C@@H](O)C(C)C | inactive

The compounds below were run on Staphylococcus aureus (assay: Antibiofilm activity against Staphylococcus aureus assessed as inhibition of biofilm formation by crystal violet assay).
Format: functional, organism-based

Row | SMILES | Activity
19 | CC1=C[C@@]2(C)[C@@H]([C@@H](/C=C(\C)C(=O)O)[C@@H]1/C(C)=C/C[C@H](O)C[C@@H](O)C[C@@H](O)[C@H](C)[C@@H](O)C(C)C)[C@@H](C)CC[C@H]2O | inactive
20 | CC1=C[C@@]2(C)[C@H]([C@@H](C)[C@H](O)C[C@H]2O)[C@@H](/C=C(\C)C(=O)O)[C@@H]1/C(C)=C/C[C@H](O)C[C@@H](O)C[C@@H](O)[C@H](C)[C@@H](O)C(C)C | inactive

Each compound was assayed on Shewanella oneidensis (assay: Antibiofilm activity against Shewanella oneidensis MR-1 assessed as inhibition of biofilm formation at 200 ug/ml by crystal violet assay).
Format: functional

Row | SMILES | inhibition at 200 µg/mL [%]
21 | CC1=C[C@@]2(C)[C@@H]([C@@H](/C=C(\C)C(=O)O)[C@@H]1/C(C)=C/C[C@H](O)C[C@@H](O)C[C@@H](O)[C@H](C)[C@@H](O)C(C)C)[C@@H](C)CC[C@H]2O | 95
22 | CC1=C[C@@]2(C)[C@H]([C@@H](C)[C@H](O)C[C@H]2O)[C@@H](/C=C(\C)C(=O)O)[C@@H]1/C(C)=C/C[C@H](O)C[C@@H](O)C[C@@H](O)[C@H](C)[C@@H](O)C(C)C | 91
